Results reported in the NIST ThermoML archive (doi:10.1016/j.tca.2019.01.031).
Numbers after ± are expanded uncertainties.

Key:
[1] = 298 K; 101.33 kPa; Crystal; X-ray diffraction
[2] = molar heat capacity at constant pressure; conditions: 101.33 kPa, Crystal, DSC
[3] = xn = mol fraction of the nth substance listed; conditions: 298 K, 101.33 kPa, Crystal, X-ray diffraction
[4] = molar heat capacity at constant pressure; xn = mol fraction of the nth substance listed; conditions: 101.33 kPa, Crystal, DSC

O=P([O-])([O-])[O-].[La+3] [lanthanum orthophosphate]
Conditions	mass density [kg/m3]
[1]	5063 ± 10

[2]
Conditions	molar heat capacity at constant pressure [J/K/mol]
298 K	97.5 ± 11
300 K	98 ± 8.7
350 K	107.3 ± 11
400 K	114.3 ± 11
450 K	120 ± 11
500 K	124.9 ± 9.1
550 K	129.3 ± 11
600 K	133.2 ± 9.3
650 K	136.9 ± 11
700 K	140.4 ± 11
750 K	143.8 ± 9.5
800 K	147.1 ± 11

O=P([O-])([O-])[O-].[La+3] [lanthanum orthophosphate] + O=P([O-])([O-])[O-].O=P([O-])([O-])[O-].[Sr+2].[Th+4]
Conditions	mass density [kg/m3]
[3], x1 = 1	5063 ± 10

[4], x1 = 1
Conditions	molar heat capacity at constant pressure [J/K/mol]
298 K	97.5 ± 11
300 K	98 ± 8.7
350 K	107.3 ± 11
400 K	114.3 ± 11
450 K	120 ± 11
500 K	124.9 ± 9.1
550 K	129.3 ± 11
600 K	133.2 ± 9.3
650 K	136.9 ± 11
700 K	140.4 ± 11
750 K	143.8 ± 9.5
800 K	147.1 ± 11

O=P([O-])([O-])[O-].O=P([O-])([O-])[O-].[Sr+2].[Th+4] [strontium thorium(IV) phosphate]
Conditions	mass density [kg/m3]
[1]	5619 ± 10

[2]
Conditions	molar heat capacity at constant pressure [J/K/mol]
298 K	177.6 ± 21
300 K	178.6 ± 17
350 K	197.2 ± 17
400 K	210.2 ± 21
450 K	220 ± 21
500 K	227.8 ± 18
550 K	234.2 ± 18
600 K	239.6 ± 15
650 K	244.4 ± 18
700 K	248.8 ± 18
750 K	252.8 ± 22
800 K	256.6 ± 22

O=P([O-])([O-])[O-].O=P([O-])([O-])[O-].[Sr+2].[Th+4] [strontium thorium(IV) phosphate] + O=P([O-])([O-])[O-].[La+3]
[3]
Conditions	mass density [kg/m3]
x2 = 0	5619 ± 9
x2 = 0.333	5505 ± 12
x2 = 0.571	5395 ± 13
x2 = 0.75	5295 ± 15
x2 = 0.889	5203 ± 20

molar heat capacity at constant pressure [J/K/mol], [4]
Conditions	x2 = 0	x2 = 0.333	x2 = 0.571	x2 = 0.75	x2 = 0.889
298 K	177.6 ± 21	172.2 ± 18	148.6 ± 18	130.3 ± 14	117 ± 12
300 K	178.6 ± 17	172.9 ± 15	149.2 ± 13	130.6 ± 11	117.4 ± 10
350 K	197.2 ± 18	186.9 ± 18	158.5 ± 18	139.5 ± 14	127.5 ± 10
400 K	210.2 ± 21	197.9 ± 18	166.3 ± 16	146.8 ± 14	135.2 ± 8.5
450 K	220 ± 22	207.2 ± 18	173.1 ± 16	153.1 ± 12	141.5 ± 12
500 K	227.8 ± 18	215.5 ± 16	179.1 ± 13	158.8 ± 14	147.1 ± 13
550 K	234.2 ± 18	223.2 ± 16	184.8 ± 16	164 ± 12	152.1 ± 15
600 K	239.6 ± 15	230.4 ± 19	190.3 ± 19	169.1 ± 14	156.8 ± 11
650 K	244.4 ± 18	237.2 ± 16	195.5 ± 16	173.9 ± 12	161.1 ± 11
700 K	248.8 ± 18	243.9 ± 19	200.6 ± 14	178.6 ± 14	165.3 ± 13
750 K	252.8 ± 22	250.2 ± 19	205.6 ± 14	183.3 ± 12	169.3 ± 11
800 K	256.6 ± 22	256.6 ± 22	210.6 ± 16	187.8 ± 14	173.2 ± 13

[O-2].[O-2].[Zr+4] [zirconium oxide]
[2]
Conditions	molar heat capacity at constant pressure [J/K/mol]
313 K	56.9 ± 6.3
323 K	57.7 ± 4.5
333 K	58.6 ± 6.3
343 K	59.3 ± 4.5
353 K	60 ± 2.9
363 K	60.7 ± 4.5
373 K	61.4 ± 4.6
383 K	61.9 ± 3
393 K	62.5 ± 4.6
403 K	63 ± 4.6
413 K	63.6 ± 4.6
423 K	64 ± 3
433 K	64.5 ± 3
443 K	64.9 ± 3
453 K	65.4 ± 4.6
463 K	65.8 ± 4.6
473 K	66.2 ± 4.6
483 K	66.6 ± 4.6
493 K	66.9 ± 3.1
503 K	67.3 ± 4.7
513 K	67.6 ± 4.7
523 K	68 ± 4.7
533 K	68.3 ± 4.7
543 K	68.6 ± 3.1
553 K	68.9 ± 3.2
563 K	69.2 ± 4.7
573 K	69.5 ± 4.7
583 K	69.8 ± 3.2
593 K	70.1 ± 4.7
603 K	70.4 ± 4.7
613 K	70.6 ± 4.7
623 K	70.9 ± 3.2
633 K	71.2 ± 4.7
643 K	71.4 ± 4.7
653 K	71.7 ± 4.7
663 K	71.9 ± 3.2
673 K	72.2 ± 3.2
683 K	72.4 ± 3.2
693 K	72.7 ± 4.8
703 K	72.9 ± 4.8
713 K	73.1 ± 4.8
723 K	73.4 ± 4.8
733 K	73.6 ± 4.8
743 K	73.8 ± 6.5
753 K	74.1 ± 6.5
763 K	74.3 ± 4.8
773 K	74.5 ± 6.6
783 K	74.7 ± 4.8
793 K	74.9 ± 6.6
800 K	75.1 ± 4.8
